Results published in PMC8287724, “Reducing Auditory Nerve Excitability by Acute Antagonism of Ca^2+-Permeable AMPA Receptors” (Frontiers in Synaptic Neuroscience, 2021).
Several values for one entry are separate records, joined by “and”; a condition that tells them apart may be missing. Equal entries are not always repeated.

Tests used:
[1] = test system: auditory nerve compound action potential (CAP); test: Auditory nerve CAP during intracochlear (apical) perfusion; type: in vivo, guinea pig
Description: This study utilized 21 NIH-strain, pigmented guinea pigs weighing from 400 to 650 g, in accordance with policies and protocols approved by the Institutional Animal Care and Use Committee at Washington University in St. Louis (20180133, 20190035). Animals were anesthetized with intraperitoneal (IP) injection of 100 mg/kg sodium thiobutabarbital (Inactin, Sigma, St. Louis, MO). Once anesthetized, the fur from the head and neck was shaved and a tracheal cannula was placed. The animal was maintained on 0.8–1.2% isoflurane in oxygen using a mechanical ventilator. The ventilator's tidal volume was adjusted to maintain a 5% end-tidal CO2 which was monitored with a CapnoTrue AMP (Bluepoint Medical, Zevenaar, The Netherlands). Body temperature was maintained at 38 degrees C with a DC-powered heating blanket-rectal thermometer (Model 50-7079; Harvard Apparatus). Heart rate and oxygen saturation were monitored with a pulse oximeter (Surgivet, Waukesha, WI). The auditory bulla was exposed ventrally for placement of recording electrodes. The jugular vein was cannulated to maintain hydration with 0.5 mL per hour of Lactated Ringer's solution. To prevent middle ear muscle contractions, vecuronium bromide (0.2 mg/kg) was administered immediately prior to data collection and every 1.5 h thereafter.
The head was stabilized in a head-holder with a solid ear bar on the left side and hollow ear bar on the right side, a bite bar, and a snout clamp. Sound calibration, stimulus generation, and recording methods have been detailed previously (Lichtenhan et al., [2016a], [2017]). Briefly, cochlear function measurements were made using MATLAB software (The MathWorks, Natick, MA) and the software utility Playrec. The stimulus was first generated in MATLAB, digitized at 96 kHz, presented to a 24-bit sound card (RME: Fireface802; Sweetwater, Fort Wayne, IN), and then routed to an acoustic probe system (ER-10X; Etymotic Research, Fort Wayne, IN). The ER-10X microphone was calibrated using a reference microphone (1/8” GRAS type 40P) and a custom-made coupling system was used for setting stimulus levels. Sound was presented through the hollow ear bar on the right side via the ER-10X microphone probe.
Cochlear output was recorded as a field potential between a Ag/AgCl ball electrode in the cochlear round window niche and a platinum needle electrode at the vertex of the cranium. Responses to 20 tone bursts (10 with reversed polarity) were averaged for each CAP measurement at a given frequency and level. The CAP audiogram was measured (1–22 kHz, 1/4 octave steps) at the beginning and end of the experiment to determine CAP threshold as a function of tone-burst frequency. Prior to and immediately after IEM-1460 perfusions via the apical cochlear fenestration (see below), CAPs were evoked by tone bursts at selected frequencies and levels. Measurements were repeated at 1- to 2-min intervals to monitor cochlear output and to ensure response stationarity for at least 25 min prior to drug delivery. Data with baseline changes >20% were excluded. The round window niche was monitored for accumulation of fluid.
At each probe frequency, CAP peak-to-peak amplitudes were measured from the first trough (N1) to the first peak (P1). Latencies were measured to the trough of N1. Cochlear output was compared before and after intraperitoneal drug delivery. The data were tested for normality using a Kolmogorov-Smirnov test. For CAP amplitude and latency, significance was assessed with the Mann-Whitney U-test. The Wilcoxon signed rank test was used to assess CAP threshold. Friedman test was used to compare concentrations of drug between perilymph and CSF. A p < 0.05 was considered statistically significant. A Bonferroni correction was used when performing multiple comparison testing. All statistical tests were performed with IBM SPSS Statistics Version 27 (SPSS Inc., Chicago, IL, United States). […]

[2] = test system: distortion product otoacoustic emissions (DPOAE); test: Distortion product otoacoustic emissions after systemic delivery; type: in vivo, guinea pig; conditions: IP 13.5 mg/kg
Description: As described for local delivery, cochlear output was measured similarly for systemic delivery of IEM-1460 and IEM-1925. Complete details have been previously published (Salt et al., [2013]). Briefly, acoustic tone bursts were applied in a closed sound system. The plastic extension tube of the acoustic assembly (Etymotic Research, ER-10 C) was coupled to the end of the hollow ear bar with the tube tip positioned ~1.5 mm from the tympanic membrane. Stimulus generation and data collection were performed with Tucker Davis System 3 hardware controlled by a custom written program (Microsoft Visual Basic). Stimulus waveforms were routed through a programmable Tucker Davis PA5 attenuator and HB7 headphone amplifier. Stimuli were calibrated from 0.125 to 26 kHz in 1/4 octave steps. A CAP audiogram was obtained at the beginning and end of the experiment. Up to 60 min of baseline audiometric data were obtained prior to drug delivery. Data with baseline changes >20% were excluded. A 13-level tone probe series, at selected frequencies, was repeated at 2-min intervals. Distortion product otoacoustic emissions (DPOAEs) were measured using an ER10C probe system. The two primary tone frequencies were set at 6 kHz (f1) and 7.4 kHz (f2), for a f2/f1-ratio of 1.23, with levels of 65 dB SPL (L1) and 55 dB SPL (L2). […]

GluA2-lacking AMPARs = test system: GluA2-lacking AMPARs; set-up: method as in Magazanik et al., 1997; Buldakova et al., 1999; conditions: ref Magazanik et al., 1997; Buldakova et al., 1999; read-out: IC50 on cells expressing GluA2-lacking AMPARs; cited from earlier work
[3] = test system: cochlear afferent synapses; set-up: method as in Hu et al., 2020; conditions: mouse; ~2.5 days of sustained intracochlear delivery; synaptopathic noise ref Hu et al., 2020; cited from earlier work
[4] = 100 μM, across tone levels and frequencies

C[N+](C)(C)CCCCCNCC12CC3CC(CC(C3)C1)C2 [IEM-1460]
reduction of tone-evoked CAP amplitude ([1]; 10 μM in perfusion): ~ 25%
reduction of CAP amplitude ([1]; 100 μM in perfusion pipette, 80 dB SPL tones at 2 and 16 kHz, average): ~ 55%
reduction of CAP amplitude relative to pre-drug baseline ([1]; 100 μM, 2 kHz tones): ~ 60%
reduction of CAP amplitude relative to pre-drug baseline ([1]; 100 μM, 16 kHz tones): ~ 30%
additional CAP delay [1, 4]: ~ 0.3 ms
increase of CAP latency relative to pre-drug [1, 4]: ~ 10% and 10%
change in CAP threshold ([1]; 100 μM, frequencies from 1 to 20 kHz): < 5 dB SPL
IC50 ([1]; Cavia porcellus, intracochlear perfusion 0.1 to 4,000 μM, 80 dB SPL probe, averaged for 2 and 16 kHz tones, Boltzmann fit, read-out: IC50, concentration for a 50% CAP reduction): ~73 µM
reduction of CAP amplitude ([1]; acute intracochlear delivery, all tone levels and frequencies (abstract, concentration not stated)): > 50%
effect on distortion product otoacoustic emissions (DPOAEs) [2]: unaffected
IC50 (GluA2-lacking AMPARs): 1 to 3 µM
effect on noise-induced synapse loss and ABR wave-I amplitude [3]: prevented synapse loss and loss of wave-I amplitude
